From US20180185370A1, “PYRAZINOQUINAZOLINONE DERIVATIVES WITH ANTIBACTERIAL ACTIVITY, METHODS AND USES THEREOF” (UNIVERSIDADE DO PORTO, priority 2015, published 2018)
Where two headings read alike, the source gives them in different places.

Columns and labels:
E. faecalis W1 (VRE) = test: Antibacterial susceptibility testing, broth microdilution (MIC/MBC); assay type: cell-based, Enterococcus faecalis; conditions: for MIC: Enterococcus faecalis, read-out: Minimum inhibitory concentration-MIC
Method: (§1) Bacterial strains and growth conditions. Five reference strains, Staphylococcus aureus ATCC 25923, Bacillus subtilis ATCC 6633, E. faecalis ATCC 29212, Escherichia coli ATCC 25922 and Pseudomonas aeruginosa ATCC 27853, and three multidrug-resistant isolates from environment, S. aureus B1 (a MRSA isolated from public buses), Enterococcus faecalis W1 (a VRE isolated from river water) and E. coli G1 (isolated from seagull feces) were used. Bacteria were grown overnight at 37° C. in Mueller-Hinton agar (MH—BioKar diagnostics, Allonne, France) prior to obtain be used in the subsequently described bioassays.
(§2) Antibacterial susceptibility testing. The minimum inhibitory concentration (MIC) values of the compounds of FIGS. 1D, 1E, 1G, 1H (equation i-iv) and 11 (equations v-x) were determined, in particular, by a broth microdilution technique, following the recommendations of the Clinical and Laboratory Standards Institute. Stock solutions of 10 mg/ml in DMSO were used to prepare in-test concentrations ranging from 2 to 256 μg/ml. Ciprofloxacin in the concentration range from 0.03125 to 16 μg/ml was used, in particular, as control drug in the experiment. The MIC was defined as the lowest concentration of compound that has inhibited the visible growth. The minimum bactericidal concentration (MBC) was determined by spreading on MH plates, 10 μL collected from the wells corresponding to the MIC and to higher concentrations, with further incubation for 24 h at 37° C.; the lowest concentration at which no growth occurred on MH was defined as the MBC.

E. faecalis ATCC 29212 = test: as above; assay type: cell-based, Enterococcus faecalis; conditions: for MIC: Enterococcus faecalis, ATCC29212, read-out: Minimum inhibitory concentration-MIC
Method: as §1, §2

P. aeruginosa ATCC 27853 = test: Antibacterial susceptibility testing, broth microdilution (MIC); assay type: cell-based, Pseudomonas aeruginosa; conditions: for MIC: Pseudomonas aeruginosa, ATCC27853, read-out: Minimum inhibitory concentration-MIC
Method: as §1, §2

B. subtilis ATCC 6633 = test: Antibacterial susceptibility testing, broth microdilution (MIC/MBC); assay type: cell-based, Bacillus subtilis; conditions: for MIC: Bacillus subtilis, ATCC6633, read-out: Minimum inhibitory concentration-MIC
Method: as §1, §2

E. coli ATCC 25922 = test: Antibacterial susceptibility testing, broth microdilution (MIC); assay type: cell-based, Escherichia coli; conditions: for MIC: Escherichia coli, ATCC25922, read-out: Minimum inhibitory concentration-MIC
Method: as §1, §2

S. aureus ATCC 25923 = test: Antibacterial susceptibility testing, broth microdilution (MIC/MBC); assay type: cell-based, Staphylococcus aureus; conditions: for MIC: Staphylococcus aureus, ATCC25923, read-out: Minimum inhibitory concentration-MIC
Method: as §1, §2

S. aureus B1 (MRSA) = test: as above; assay type: cell-based, Staphylococcus aureus; conditions: for MIC: Staphylococcus aureus, read-out: Minimum inhibitory concentration-MIC
Method: as §1, §2

CC(C)[C@]12NC(=O)[C@H](Cc3c1[nH]c1ccccc31)n1c2nc2ccccc2c1=O [FIG. 1D, sartorymensin]
Minimum inhibitory concentration-MIC (E. faecalis W1 (VRE); E. faecalis W1 (VRE)): >256 µg/mL | Minimum inhibitory concentration-MIC (E. faecalis ATCC 29212): >256 µg/mL | Minimum inhibitory concentration-MIC (P. aeruginosa ATCC 27853): >256 µg/mL | Minimum inhibitory concentration-MIC (B. subtilis ATCC 6633): >256 µg/mL | Minimum inhibitory concentration-MIC (E. coli ATCC 25922): >256 µg/mL | Minimum inhibitory concentration-MIC (S. aureus ATCC 25923): > 256 µg/mL | Minimum inhibitory concentration-MIC (S. aureus B1 (MRSA); S. aureus B1 (MRSA)): >256 µg/mL

CC(=O)O[C@H](c1nc2ccccc2c(=O)n1[C@@H]1C[C@]2(OC1=O)c1ccccc1N1C(=O)C(C)(C)N(O)[C@H]12)C(C)C [FIG. 1E, tryptoquivaline]
MIC (E. faecalis W1 (VRE); VRE): > 256 µg/mL | MIC (E. faecalis ATCC 29212): > 256 µg/mL | MIC (P. aeruginosa ATCC 27853): > 256 µg/mL | MIC (B. subtilis ATCC 6633): > 256 µg/mL | MIC (E. coli ATCC 25922): > 256 µg/mL | MIC (S. aureus ATCC 25923): > 256 µg/mL | MIC (S. aureus B1 (MRSA); MRSA): > 256 µg/mL

O=C1OC2(CC1n1cnc3ccccc3c1=O)C(=O)Nc1ccccc12 (stereo not drawn) [FIG. 1G, 3′-(4oxoquinazolin-3yl) spiro [1H-indole-3,5′-oxolane]-2,2′-dione]
MIC (E. faecalis W1 (VRE); E. faecalis W1 (VRE)): > 256 µg/mL | MIC (E. faecalis ATCC 29212): > 256 µg/mL | MIC (P. aeruginosa ATCC 27853): > 256 µg/mL | MIC (B. subtilis ATCC 6633): > 256 µg/mL | MIC (E. coli ATCC 25922): > 256 µg/mL | MIC (S. aureus ATCC 25923): > 256 µg/mL | MIC (S. aureus B1 (MRSA); S. aureus B1 (MRSA)): > 256 µg/mL

CC1(C)C(=O)N2c3ccccc3C3(CC(n4cnc5ccccc5c4=O)C(=O)O3)C2N1O (stereo not drawn) [FIG. 1H (eq. i), tryptoquivaline L]
Minimum inhibitory concentration-MIC (E. faecalis W1 (VRE); E. faecalis W1 (VRE)): >256 µg/mL | Minimum inhibitory concentration-MIC (E. faecalis ATCC 29212): >256 µg/mL | Minimum inhibitory concentration-MIC (P. aeruginosa ATCC 27853): >256 µg/mL | Minimum inhibitory concentration-MIC (B. subtilis ATCC 6633): >256 µg/mL | Minimum inhibitory concentration-MIC (E. coli ATCC 25922): >256 µg/mL | Minimum inhibitory concentration-MIC (S. aureus ATCC 25923): > 256 µg/mL | Minimum inhibitory concentration-MIC (S. aureus B1 (MRSA); S. aureus B1 (MRSA)): >256 µg/mL

C[C@H]1C(=O)N2c3ccccc3[C@@]3(C[C@@H](n4cnc5ccccc5c4=O)C(=O)O3)[C@@H]2N1O [FIG. 1H (eq. ii), tryptoquivaline H]
Minimum inhibitory concentration-MIC (E. faecalis W1 (VRE); E. faecalis W1 (VRE)): >256 µg/mL | Minimum inhibitory concentration-MIC (E. faecalis ATCC 29212): >256 µg/mL | Minimum inhibitory concentration-MIC (P. aeruginosa ATCC 27853): >256 µg/mL | Minimum inhibitory concentration-MIC (B. subtilis ATCC 6633): >256 µg/mL | Minimum inhibitory concentration-MIC (E. coli ATCC 25922): >256 µg/mL | Minimum inhibitory concentration-MIC (S. aureus ATCC 25923): > 256 µg/mL | Minimum inhibitory concentration-MIC (S. aureus B1 (MRSA); S. aureus B1 (MRSA)): >256 µg/mL

C[C@@H]1N[C@@H]2N(C1=O)c1ccccc1[C@@]21C[C@@H](n2cnc3ccccc3c2=O)C(=O)O1 [FIG. 1H (eq. iii), tryptoquivaline F]
Minimum inhibitory concentration-MIC (E. faecalis W1 (VRE); E. faecalis W1 (VRE)): >256 µg/mL | Minimum inhibitory concentration-MIC (E. faecalis ATCC 29212): >256 µg/mL | Minimum inhibitory concentration-MIC (P. aeruginosa ATCC 27853): >256 µg/mL | Minimum inhibitory concentration-MIC (B. subtilis ATCC 6633): >256 µg/mL | Minimum inhibitory concentration-MIC (E. coli ATCC 25922): >256 µg/mL | Minimum inhibitory concentration-MIC (S. aureus ATCC 25923): >256 µg/mL | Minimum inhibitory concentration-MIC (S. aureus B1 (MRSA); S. aureus B1 (MRSA)): >256 µg/mL

CC(C)[C@@H]1NC(=O)[C@@H](C[C@]2(O)c3ccccc3N3C(=O)[C@H](C)N[C@H]32)n2c1nc1ccccc1c2=O [FIG. 1I (eq. vii), fiscalin A]
Minimum inhibitory concentration-MIC (E. faecalis W1 (VRE); E. faecalis W1 (VRE)): >256 µg/mL | Minimum inhibitory concentration-MIC (E. faecalis ATCC 29212): >256 µg/mL | Minimum inhibitory concentration-MIC (P. aeruginosa ATCC 27853): >256 µg/mL | Minimum inhibitory concentration-MIC (B. subtilis ATCC 6633): >256 µg/mL | Minimum inhibitory concentration-MIC (E. coli ATCC 25922): >256 µg/mL | Minimum inhibitory concentration-MIC (S. aureus ATCC 25923): >256 µg/mL | Minimum inhibitory concentration-MIC (S. aureus B1 (MRSA); S. aureus B1 (MRSA)): >256 µg/mL

CC(C)[C@H]1NC(=O)[C@@H](C[C@]2(O)c3ccccc3N3C(=O)[C@H](C)N[C@H]32)n2c1nc1ccccc1c2=O [FIG. 1I (eq. viii), epi-fiscalin A]
Minimum inhibitory concentration-MIC (E. faecalis W1 (VRE); E. faecalis W1 (VRE)): >256 µg/mL | Minimum inhibitory concentration-MIC (E. faecalis ATCC 29212): >256 µg/mL | Minimum inhibitory concentration-MIC (P. aeruginosa ATCC 27853): >256 µg/mL | Minimum inhibitory concentration-MIC (B. subtilis ATCC 6633): >256 µg/mL | Minimum inhibitory concentration-MIC (E. coli ATCC 25922): >256 µg/mL | Minimum inhibitory concentration-MIC (S. aureus ATCC 25923): >256 µg/mL | Minimum inhibitory concentration-MIC (S. aureus B1 (MRSA); S. aureus B1 (MRSA)): >256 µg/mL

epi-fiscalin C [FIG. 1I (eq. vi)]
Minimum inhibitory concentration-MIC (E. faecalis W1 (VRE); E. faecalis W1 (VRE)): >256 µg/mL | Minimum inhibitory concentration-MIC (E. faecalis ATCC 29212): >256 µg/mL | Minimum inhibitory concentration-MIC (P. aeruginosa ATCC 27853): >256 µg/mL | Minimum inhibitory concentration-MIC (B. subtilis ATCC 6633): >256 µg/mL | Minimum inhibitory concentration-MIC (E. coli ATCC 25922): >256 µg/mL | Minimum inhibitory concentration-MIC (S. aureus ATCC 25923): >256 µg/mL | Minimum inhibitory concentration-MIC (S. aureus B1 (MRSA); S. aureus B1 (MRSA)): >256 µg/mL
